Measurements: US11377442B2, “Small molecule agonists and antagonists of NR2F6 activity” (ZANDER THERAPEUTICS, INC., priority 2016, dated 2022)

Target: T1, NR2F6 (Homo sapiens, UniProt P10588)
T1 construct: expressed in transfected cells; also transient transfection
T1 sequence (P10588 1-404): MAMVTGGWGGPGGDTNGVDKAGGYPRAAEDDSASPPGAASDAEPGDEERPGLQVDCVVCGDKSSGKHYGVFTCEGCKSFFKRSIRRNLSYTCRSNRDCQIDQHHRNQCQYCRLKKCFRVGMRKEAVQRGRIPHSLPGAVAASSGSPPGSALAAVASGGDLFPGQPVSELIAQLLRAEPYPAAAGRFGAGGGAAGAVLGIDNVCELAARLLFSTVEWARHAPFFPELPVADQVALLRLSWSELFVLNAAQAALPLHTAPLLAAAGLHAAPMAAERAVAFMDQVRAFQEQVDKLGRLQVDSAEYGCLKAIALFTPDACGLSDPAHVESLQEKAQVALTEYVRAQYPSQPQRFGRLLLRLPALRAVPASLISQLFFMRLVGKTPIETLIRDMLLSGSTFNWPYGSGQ
Experiment: NR2F6 agonist screening, Firefly signal cmpd/DMSO
Type: cell-based
Conditions: for Firefly/Renilla (NR2F6 stable, clone F4): ratio Firefly/Renilla; for Firefly, NR2F6 stable (clone F4)/pGL4: ratio of Firefly in NR2F6 stable clone F4 to pGL4

[1] = C11 analogs follow set (Tables 2-10)

SMILES	Firefly, cmpd/DMSO repeat 1 [1]	Firefly, cmpd/DMSO repeat 2 [1]	Firefly/Renilla (NR2F6 stable, clone F4) (Table 12)	Firefly, NR2F6 stable (clone F4)/pGL4 (Table 12)	Firefly, cmpd/DMSO repeat 1 (Table 12)	Firefly, cmpd/DMSO repeat 2 (Table 12)	Firefly/Renilla (NR2F6 stable, clone F4) (Table 13)	Firefly, NR2F6 stable (clone F4)/pGL4 (Table 13)	Firefly, cmpd/DMSO repeat 1 (Table 13)	Firefly, cmpd/DMSO repeat 2 (Table 13)
COC(=O)c1ccc2oc(=O)c(S(=O)(=O)c3ccc(OC)cc3)cc2c1 [Compound C12]	20.0	16.7	2.6	6.6	20.0	16.7	–	–	–	–
COC(=O)c1ccc2oc(=O)c(S(=O)(=O)c3ccc(C)cc3)cc2c1 [Compound C13]	14.0	12.9	1.8	4.2	14.0	12.9	–	–	–	–
COC(=O)c1ccc2oc(=O)c(S(=O)(=O)c3ccc(F)cc3)cc2c1 [Compound C14]	22.3	20.0	–	–	–	–	1.5	7.6	22.3	20.0
COC(=O)c1ccc2oc(=O)c(S(=O)(=O)c3ccc(Cl)cc3)cc2c1 [Compound C15]	0.9	1.7	–	–	–	–	–	–	–	–
Cc1ccc(S(=O)(=O)c2cc3ccccc3oc2=O)cc1 [Compound C100]	2.0	1.9	–	–	–	–	–	–	–	–
COc1ccc(S(=O)(=O)c2cc3ccccc3oc2=O)cc1 [Compound C101]	4.5	4.7	2.4	3.6	4.5	4.7	–	–	–	–
O=c1oc2ccccc2cc1S(=O)(=O)c1ccc(Br)cc1 [Compound C102]	13.0	15.3	2.4	5.9	13.0	15.3	–	–	–	–
CC(C)(C)c1ccc(S(=O)(=O)c2cc3ccccc3oc2=O)cc1 [Compound C103]	2.8	1.4	–	–	–	–	–	–	–	–
Cc1ccc(S(=O)(=O)c2cc3ccccc3oc2=O)cc1C [Compound C104]	3.1	4.4	–	–	–	–	–	–	–	–
O=c1oc2ccccc2cc1S(=O)(=O)c1ccc(Cl)cc1 [Compound C105]	5.7	4.8	–	–	–	–	2.6	3.1	5.7	4.8
O=c1oc2ccccc2cc1S(=O)(=O)c1ccc(Cl)c(Cl)c1 [Compound C106]	1.4	1.3	–	–	–	–	–	–	–	–
O=c1oc2ccccc2cc1S(=O)(=O)c1ccc(F)c(Cl)c1 [Compound C107]	11.0	11.0	–	–	–	–	1.4	5.8	11.0	11.0
O=c1oc2ccccc2cc1S(=O)(=O)c1ccccc1F [Compound C108]	7.9	7.3	2.6	5.5	7.9	7.3	–	–	–	–
O=c1oc2ccccc2cc1S(=O)(=O)c1cccc(Cl)c1 [Compound C109]	9.2	10.3	–	–	–	–	2.9	2.9	9.2	10.3
Cc1cc(S(=O)(=O)c2cc3ccccc3oc2=O)ccc1F [Compound C110]	7.6	7.2	3.3	3.9	7.6	7.2	–	–	–	–
O=C(NCCc1ccccc1)c1ccc2oc(=O)c(S(=O)(=O)c3ccccc3)cc2c1 [Compound C111]	29.8	35.9	–	–	–	–	1.1	8.7	29.8	35.9
Cc1ccc(S(=O)(=O)c2cc3cc(C(=O)NCCc4ccccc4)ccc3oc2=O)cc1 [Compound C112]	11.7	10.1	2.0	4.1	11.7	10.1	–	–	–	–
O=C(NCCc1ccccc1)c1ccc2oc(=O)c(S(=O)(=O)c3ccc(F)cc3)cc2c1 [Compound C113]	5.8	7.0	–	–	–	–	–	–	–	–
O=C(NCCc1ccccc1)c1ccc2oc(=O)c(S(=O)(=O)c3ccc(Cl)cc3)cc2c1 [Compound C114]	4.5	4.7	–	–	–	–	–	–	–	–
O=C(NCc1ccccc1)c1ccc2oc(=O)c(S(=O)(=O)c3ccccc3)cc2c1 [Compound C115]	6.8	21.9	–	–	–	–	–	–	–	–
Cc1ccc(CNC(=O)c2ccc3oc(=O)c(S(=O)(=O)c4ccc(Cl)cc4)cc3c2)cc1 [Compound C116]	8.6	9.0	–	–	–	–	–	–	–	–
COc1ccc(CNC(=O)c2ccc3oc(=O)c(S(=O)(=O)c4ccc(F)cc4)cc3c2)cc1 [Compound C117]	17.3	24.1	–	–	–	–	–	–	–	–
O=C(NCc1ccc(F)cc1)c1ccc2oc(=O)c(S(=O)(=O)c3ccc(F)cc3)cc2c1 [Compound C118]	13.5	17.1	–	–	–	–	1.1	5.9	13.5	17.1
O=C(NCc1ccc(F)cc1)c1ccc2oc(=O)c(S(=O)(=O)c3ccc(Cl)cc3)cc2c1 [Compound C119]	18.4	16.2	–	–	–	–	–	–	–	–
